Inhibition data for one molecule are collected here from patent EP0415304A2, “Dipyrido[3,2-b:2',3'-e][1,4]oxazepin (and thiazepin)-6(5H)-ones and their use in the prevention or treatment of aids” (BOEHRINGER INGELHEIM PHARMACEUTICALS INC., priority 1989, dated 1991).

Usually inhibition stands for the change of the read-out against control, counted positive when it falls.

The assay addresses T1, HIV-1 RT (Human immunodeficiency virus type 1 group M subtype B, UniProt P03367).
T1 construct: Reverse transcriptase enzyme from the LAV strain of Human Immunodeficiency Virus (HIV-1) (1) was isolated from the bacterial strain JM109; made in house; host or cells: E. coli JM109, clone pBRTprtl+ in vector pIB121 under the lac promoter
The experiment in a line: Reverse Transcriptase (RT) Assay: inhibition of RNA-dependent DNA polymerase activity. It is filed as biochemical. The note with it: tested at a concentration of 10µg/ml; read-out: inhibit the enzyme (percent inhibition of RNA-dependent DNA polymerase activity of HIV-1 RT). An excerpt: Utilizing the Reverse Transcriptase (RT) Assay described below, compounds can be tested for their ability to inhibit the RNA-dependent DNA polymerase activity of HIV-1 RT. The compound described in Example 1, which appears below, was so tested.
Among the enzymes for which Human Immunodeficiency Virus (HIV-1) encodes is a reverse transcriptase (1), so-named because it transcribes a DNA copy from an RNA template. This activity can be quantitatively measured in a cell-free enzyme assay which has been previously described (2), and is based upon the observation that reverse transcriptase is able to use a synthetic template [poly r(C) primed with oligo d(G)] to transcribe a radio-labelled, acid-precipitable DNA strand utilizing ³H-dGTP as a substrate.
Reverse transcriptase enzyme from the LAV strain of Human Immunodeficiency Virus (HIV-1) (1) was isolated from the bacterial strain JM109 (3) expressing the DNA clone pBRTprtl+ (2) which is under the control of the lac promotor in the expression vector pIB121 (4). […]
The 2X concentrated stock reaction mixture is aliquoted and stored at -20°C. […] Each vial receives 2 ml of scintillation cocktail and is counted in a Beckman beta counter. […]

For `CCCN1C(=O)c2cccnc2Oc2ncccc21` [Example 1, 5,6-Dihydro-5-propyl-6H-dipyrido[3,2-b:2′,3′-e][1,4]oxazepin-6-one], the inhibition at 10 µg/mL came to 30%.
